From patent US11236055B2 (Venenum Biodesign, LLC, priority 2016, dated 2022)

Tests used:
mouse TGR5 receptor = target: T1, mouse TGR5 receptor (Mus musculus, UniProt Q80SS6); assay: Mouse TGR5 cAMP production assay (HTRF, Cisbio cAMP HiRange); assay type: cell-based; conditions: HEK293-EBNA cells overexpressing mouse TGR5, HTRF cAMP HiRange; coded A-D
T1 construct: expressed in transfected cells; host or cells: HEK293-EBNA (293 c18, ATCC CRL10852), Hygromycin B selection
T1 sequence (Q80SS6 1-329): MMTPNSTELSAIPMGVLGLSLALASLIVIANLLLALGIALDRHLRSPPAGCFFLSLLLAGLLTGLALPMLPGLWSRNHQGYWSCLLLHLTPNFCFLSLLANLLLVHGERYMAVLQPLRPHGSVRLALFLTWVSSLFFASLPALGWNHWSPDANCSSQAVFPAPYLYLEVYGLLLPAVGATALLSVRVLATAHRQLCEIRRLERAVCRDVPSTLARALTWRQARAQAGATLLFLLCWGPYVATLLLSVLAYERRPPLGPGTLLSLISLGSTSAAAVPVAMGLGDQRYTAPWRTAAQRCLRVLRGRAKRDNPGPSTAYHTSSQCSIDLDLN
Procedure, shortened: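 cAMP read by HTRF competition after 1 h room-temperature compound exposure of mouse TGR5-overexpressing HEK293-EBNA cells. Cells were suspended in serum-free DMEM containing 500 μM IBMX; compounds ran as 12-point half-log dilutions in duplicate; EC50 derived.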

human TGR5 receptor = target: T2, human TGR5 receptor (Homo sapiens, UniProt Q8TDU6); assay: Human TGR5 cAMP production assay; assay type: cell-based; conditions: human TGR5, luminescent cAMP assay; coded A-D; read-out: Human TGR5 Lum. cAMP Activity (EC50)
T2 construct: host or cells: CHO-K1 (hTGR5-CHO cells)
T2 sequence (Q8TDU6 1-330): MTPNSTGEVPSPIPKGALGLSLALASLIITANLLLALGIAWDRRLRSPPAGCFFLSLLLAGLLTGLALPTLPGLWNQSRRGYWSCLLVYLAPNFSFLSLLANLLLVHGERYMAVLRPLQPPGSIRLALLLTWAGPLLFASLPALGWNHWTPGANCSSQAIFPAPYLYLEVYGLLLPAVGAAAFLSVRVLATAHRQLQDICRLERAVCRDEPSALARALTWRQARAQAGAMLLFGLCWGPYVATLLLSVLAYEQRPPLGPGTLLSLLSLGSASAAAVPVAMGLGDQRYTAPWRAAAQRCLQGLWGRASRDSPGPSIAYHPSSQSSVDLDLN
Procedure, shortened: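 Intracellular cAMP read by luminescent enzyme-complementation (XS+) after overnight development, following 1 h room-temperature compound treatment of hTGR5-CHO-K1 cells in IBMX plus anti-cAMP antibody. Compounds tested as half-log dilution series; EC50 derived.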

| EC50 (mouse TGR5 receptor) | EC50 (human TGR5 receptor) | SMILES |
| --- | --- | --- |
| 0.1 to 0.999 µM | 0.1 to 0.999 µM | Cc1cnccc1-c1cccc(C2CN(CCCC(=O)O)CCN2S(=O)(=O)c2cccc(Cl)c2C)c1 (stereo not shown) [Compound 52, 4-(4-((3-chloro-2-methylphenyl)sulfonyl)-3-(3-(3-methylpyridin-4-yl)phenyl)piperazin-1-yl)butanoic acid] |
| < 0.1 µM | < 0.1 µM | CCc1cnccc1-c1cccc([C@H](C)N(CCCCNC(=O)[C@@H](N)CS(=O)(=O)O)S(=O)(=O)c2cccc(Cl)c2C)c1 [Compound 31AD, (R)-2-amino-3-((4-(3-chloro-N-((S)-1-(3-(3-ethylpyridin-4-yl)phenyl)ethyl)-2-methylphenylsulfonamido)butyl)amino)-3-oxopropane-1-sulfonic acid] |
| 1 to 30 µM | 0.1 to 0.999 µM | COc1cnccc1-c1cccc(C2CCCN2S(=O)(=O)c2cccc(C(F)(F)F)c2)c1 (stereo not shown) [Compound 40, 3-methoxy-4-(3-(1-((3-(trifluoromethyl)phenyl)sulfonyl)pyrrolidin-2-yl)phenyl)pyridine] |
| < 0.1 µM | 0.1 to 0.999 µM | COc1cnccc1-c1cccc(C2CN(C(=O)CCC(=O)O)CCN2S(=O)(=O)c2cccc(Cl)c2C)c1 (stereo not shown) [Compound 46AH, 4-(4-((3-chloro-2-methylphenyl)sulfonyl)-3-(3-(3-methoxypyridin-4-yl)phenyl)piperazin-1-yl)-4-oxobutanoic acid] |
| 0.1 to 0.999 µM | < 0.1 µM | Cc1cnccc1-c1cccc([C@H](C)N(CCCCC(=O)NCCOCCNC(=O)NCCS(=O)(=O)O)S(=O)(=O)c2cccc(Cl)c2C)c1 [Compound 28AF, (S)-17-((3-chloro-2-methylphenyl)sulfonyl)-18-(3-(3-methylpyridin-4-yl)phenyl)-4,12-dioxo-8-oxa-3,5,11,17-tetraazanonadecane-1-sulfonic acid] |
| 1 to 30 µM | 0.1 to 0.999 µM | Cc1cnsc1-c1cccc([C@H](C)N(CCCC(=O)NCCS(=O)(=O)O)S(=O)(=O)c2cccc(Cl)c2C)c1 [Compound 20BP, (S)-2-(4-(3-chloro-2-methyl-N-(1-(3-(4-methylisothiazol-5-yl)phenyl)ethyl)phenylsulfonamido)butanamido)ethanesulfonic acid] |
| < 0.1 µM | < 0.1 µM | Cc1cnccc1-c1cccc(C(C)(C)N(CCCC(=O)NCCNc2ncc(C(=O)O)cn2)S(=O)(=O)c2cccc(Cl)c2C)c1 [Compound 27AA, 2-((2-(4-(3-chloro-2-methyl-N-(2-(3-(3-methylpyridin-4-yl)Phenyl)propan-2-yl)phenylsulfonamido)butanamido)ethyl)amino)pyrimidine-5-carboxylic acid] |
| < 0.1 µM | < 0.1 µM | Cc1cnccc1-c1cccc([C@H](C)N(CCCCC(=O)NCCOCCNC(=O)CS(=O)(=O)O)S(=O)(=O)c2cccc(Cl)c2C)c1 [Compound 31, (S)-15-((3-chloro-2-methylphenyl)sulfonyl)-16-(3-(3-methylpyridin-4-yl)phenyl)-2,10-dioxo-6-oxa-3,9,15-triazaheptadecane-1-sulfonic acid] |
| < 0.1 µM | 0.1 to 0.999 µM | COc1cccc(S(=O)(=O)N2CCN(C(=O)CS(=O)(=O)O)CC2c2cccc(-c3ccncc3C)c2)c1 (stereo not shown) [Compound 49AB, 2-(4-((3-methoxyphenyl)sulfonyl)-3-(3-(3-methylpyridin-4-yl)phenyl)piperazin-1-yl)-2-oxoethanesulfonic acid] |
| 0.1 to 0.999 µM | 1 to 30 µM | Cc1cnccc1-c1cccc(C(CCCCN)NS(=O)(=O)c2ccccc2C(F)(F)F)c1 (stereo not shown) [Compound 24AA, N-(5-amino-1-(3-(3-methylpyridin-4-yl)phenyl)pentyl)-2-(trifluoromethyl)benzenesulfonamide] |
| 1 to 30 µM | < 0.1 µM | COc1cnccc1-c1cccc(C2CCCN2S(=O)(=O)c2ccccc2C(F)(F)F)c1 (stereo not shown) [Compound 40AA, 3-methoxy-4-(3-(1-((2-(trifluoromethyl)phenyl)sulfonyl)pyrrolidin-2-yl)phenyl)pyridine] |
| 0.1 to 0.999 µM | < 0.1 µM | Cc1cnccc1-c1cccc([C@H](C)N(CCCC(=O)NCCNC(=O)[C@@H](N)CS(=O)(=O)O)S(=O)(=O)c2ccccc2C(F)(F)F)c1 [Compound 31AF, (R)-2-amino-3-((2-(4-(N-((S)-1-(3-(3-methylpyridin-4-yl)phenyl)ethyl)-2-(trifluoromethyl)phenylsulfonamido)butanamido)ethyl)amino)-3-oxopropane-1-sulfonic acid] |
| 0.1 to 0.999 µM | < 0.1 µM | Cc1cnccc1-c1cccc([C@H](C)N(CCCC(=O)NCCC(=O)NCC(=O)O)S(=O)(=O)c2cccc(Cl)c2C)c1 [Compound 21AM, (S)-2-(3-(4-(3-chloro-2-methyl-N-(1-(3-(3-methylpyridin-4-yl)phenyl)ethyl)phenylsulfonamido)butanamido)propanamido)acetic acid] |

Continued, molecule first:

| SMILES | EC50 (mouse TGR5 receptor) | EC50 (human TGR5 receptor) |
| --- | --- | --- |
| Cc1cnccc1-c1cccc([C@H](C)N(CCCC(=O)NCCS(N)(=O)=O)S(=O)(=O)c2cccc(Cl)c2C)c1 [Compound 20AJ, (S)-4-(3-chloro-2-methyl-N-(1-(3-(3-methylpyridin-4-yl)phenyl)ethyl)phenylsulfonamido)-N-(2-sulfamoylethyl)butanamide] | 0.1 to 0.999 µM | < 0.1 µM |
| Cc1cnsc1-c1cccc([C@H](C)NS(=O)(=O)c2cccc(Cl)c2C)c1 [Compound 7AA, (S)-3-chloro-2-methyl-N-(1-(3-(4-methylisothiazol-5-yl)-phenyl)ethyl)benzenesulfonamide] | > 30 µM | 1 to 30 µM |
| Cc1cnccc1-c1cccc(C(C)N(CCCC(=O)NCCSO)S(=O)(=O)c2cccc(C(F)(F)F)c2)c1 (stereo not shown) [Compound 20BD, N-(2-(hydroxythio)ethyl)-4-(N-(1-(3-(3-methylpyridin-4-yl)phenyl)ethyl)-3-(trifluoromethyl)phenylsulfonamido)butanamide] | 0.1 to 0.999 µM | 0.1 to 0.999 µM |
| CN(C)C(=O)c1cnccc1-c1cccc(C(C)(C)NS(=O)(=O)c2ccccc2C(F)(F)F)c1 [Compound 11, N,N-dimethyl-4-(3-(2-(2-(trifluoromethyl)phenylsulfonamido)propan-2-yl)phenyl)nicotinamide] | 1 to 30 µM | 1 to 30 µM |
| Cc1cnccc1-c1cccc([C@H](C)N(CCCCNc2c(NCCS(=O)(=O)O)c(=O)c2=O)S(=O)(=O)c2ccccc2C(F)(F)F)c1 | 0.1 to 0.999 µM | < 0.1 µM |
| CCc1cnccc1-c1cccc([C@@H](C)NS(=O)(=O)c2ccccc2C(F)(F)F)c1 [Compound 5AS, (R)-N-(1-(3-(3-ethylpyridin-4-yl)phenyl)ethyl)-2-(trifluoromethyl)benzenesulfonamide] | 0.1 to 0.999 µM | < 0.1 µM |
| Cc1cc2nccn2cc1-c1cccc(C(C)(C)NS(=O)(=O)c2ccccc2C(F)(F)F)c1 [Compound 5AK, N-(2-(3-(7-methylimidazo[1,2-a]pyridin-6-yl)phenyl)propan-2-yl)-2-(trifluoromethyl)benzenesulfonamide] | 1 to 30 µM | 0.1 to 0.999 µM |
| CC(C)(NS(=O)(=O)c1ccccc1C(F)(F)F)c1cccc(-c2ccncc2CO)c1 [Compound 5AN, N-(2-(3-(3-(hydroxymethyl)pyridin-4-yl)phenyl)propan-2-yl)-2-(trifluoromethyl)benzenesulfonamide] | 0.1 to 0.999 µM | < 0.1 µM |
| Cc1cnccc1-c1cccc(C(CCC(=O)O)NS(=O)(=O)c2ccccc2C(F)(F)F)c1 (stereo not shown) [Compound 19, 4-(3-(3-methylpyridin-4-yl)phenyl)-4-(2-(trifluoromethyl)phenylsulfonamido)butanoic acid] | 0.1 to 0.999 µM | 1 to 30 µM |
| Cc1cnsc1-c1cccc([C@H](C)N(CCCC(=O)O)S(=O)(=O)c2cccc(Cl)c2C)c1 [Compound 16AJ, (S)-4-(3-chloro-2-methyl-N-(1-(3-(4-methylisothiazol-5-yl)phenyl)ethyl)phenyl-sulfonamido)butanoic acid] | 1 to 30 µM | 1 to 30 µM |
| Cc1cnccc1-c1cccc(C(C)(C)NS(=O)(=O)c2ccccc2C)c1 [Compound 2BX] | < 0.1 µM | < 0.1 µM |
| Cc1cnccc1-c1cccc([C@H](C)N(CCCC(=O)NC[C@@H](O)[C@H](O)[C@@H](O)[C@@H](O)CO)S(=O)(=O)c2cccc(Cl)c2C)c1 [Compound 20AK, 4-(3-chloro-2-methyl-N-((S)-1-(3-(3-methylpyridin-4-yl)phenyl)ethyl)phenylsulfonamido)-N-((2R,3S,4S,5S)-2,3,4,5,6-pentahydroxyhexyl)butanamide] | 0.1 to 0.999 µM | < 0.1 µM |
| CC(C)(NS(=O)(=O)c1ccccc1C(F)(F)F)c1cccc(-c2ccnnc2)c1 [Compound 1BL] | 1 to 30 µM | 0.1 to 0.999 µM |
